In brackets after ≈: the same amount, converted by molar mass. Counter-ions that a name gives are not always drawn. Like-named read-outs stand apart in the source and are kept apart here.
What was measured:
Format in all cases: physicochemical
[1] = Solubility in media with different pH values; details: shaken 24 h; for Solubility pH 3 / Solubility pH 4 / Solubility pH 5 / Solubility pH 6: acetate buffer; for Solubility pH 3 / Solubility pH 4 / Solubility pH 5 / Solubility pH 6 / Solubility pH 7 / Solubility pH 7.4 / Solubility pH 8 / Solubility pH 9 / Solubility Water: 37° C.; for Solubility pH 7 / Solubility pH 7.4 / Solubility pH 8 / Solubility pH 9 / solubility at 24 h: phosphate buffer; for solubility at 24 h: 37 °C, thermodynamic from solid
Method: The mixtures were shaken at 37° C. for 24 h and filtered through a 0.45 μm aqueous-phase filter membranes. The filtrates were collected for solubility determination by high performance liquid chromatography. pH 3, pH 4, pH5 and pH 6 represent acetate buffer solutions, and pH 7, pH 7.4, pH 8 and pH 9 represent phosphate buffer solutions.

[2] = Hydrochloride dissociation study (XRPD of residues); details: aqueous media of pH 6, pH 7, pH 7.4, pH 8, pH 9; shaken at 37° C. for 4 h
Method: The mixtures were shaken at 37° C. for 4 h and centrifuged.

[3] = Crystal form stability of solid salt forms (XRPD); details: 60° C., Day 10, listed as crystal form A of cariprazine mono-1-hydroxy-2-naphthoate dihydrate
Method: (4) The XRPD measurements were conducted on a Bruker model D8 Advance X-ray powder diffractometer using a round zero background single crystal silicon sample stage. CuKα rays were used as a light source in the test, and the scanning parameters are as follows: voltage: 40 kv; current: 40 mA; scanning range: 3°-45°; scanning step size: 0.02°; scanning mode: continuous scanning.

[4] = listed as Amorphous cariprazine embonate (Example 7)
[5] = listed as Crystal form A of cariprazine mono-1-hydroxy-2-naphthoate dihydrate (Example 1), dihydrate
[6] = listed as Crystal form A of cariprazine bis-1-hydroxy-2-naphthoate hydrate (Example 5), hydrate

For `CN(C)C(=O)NC1CCC(CCN2CCN(c3cccc(Cl)c3Cl)CC2)CC1` (centres unmarked) [Crystal form C of cariprazine mono-1-hydroxy-2-naphthoate (E], which “Solubility pH 3” value [1] is on record?
The value was 102.65 μg/mL.

And the “Solubility pH 4” value [1]?
Its value is 82.64 μg/mL.

And the “Solubility pH 5” value [1]?
Its value is 81.47 μg/mL.

What about the “Solubility pH 6” value [1] of the same compound?
The value was 36.38 μg/mL.

What about the “Solubility pH 7” value [1] of the same compound?
Its value is 4.79 μg/mL.

And the “Solubility pH 7.4” value [1]?
Its value is 1.53 μg/mL.

What about the “Solubility pH 8” value [1] of the same compound?
Its value is 0.51 μg/mL.

And the “Solubility pH 9” value [1]?
Its value is 0.31 μg/mL.

And the “Solubility Water” value [1]?
Its value is 65.28 µg/mL (≈ 153 µM).

What does the source list for `CN(C)C(=O)NC1CCC(CCN2CCN(c3cccc(Cl)c3Cl)CC2)CC1` (centres unmarked) [Cariprazine (commercially available), Cariprazine, reference compound]?
Solubility pH 8 [1]: 0.4 μg/mL; Solubility Water [1]: 179.94 µg/mL (≈ 421 µM)

What does the source list for `CN(C)C(=O)NC1CCC(CCN2CCN(c3cccc(Cl)c3Cl)CC2)CC1` (centres unmarked) [Amorphous cariprazine embonate, cariprazine embonate]?
Solubility pH 3 [1, 4]: 151.2 μg/mL; Solubility pH 4 [1, 4]: 19.1 μg/mL; Solubility pH 5 [1, 4]: 17.7 μg/mL; Solubility pH 6 [1, 4]: 19.0 μg/mL; Solubility pH 7 [1, 4]: 18.8 μg/mL; Solubility pH 7.4 [1, 4]: 9.9 μg/mL; Solubility pH 8 [1, 4]: 4.6 μg/mL; Solubility pH 9 [1, 4]: 4.2 μg/mL; Solubility Water [1, 4]: 10.4 µg/mL (≈ 24.3 µM)

Which “Dissociation in aqueous media (XRPD of residue)” value [2] does the source give for `CN(C)C(=O)N[C@H]1CC[C@H](CCN2CCN(c3cccc(Cl)c3Cl)CC2)CC1` [cariprazine hydrochloride, reference compound] here?
The value was “dissociated into cariprazine free base”.

What about the “Solubility pH 3” value [1] of the same compound?
Its value is 12302.45 μg/mL.

And the “Solubility pH 5” value [1]?
The value was 1081.35 μg/mL.

What about the solubility at 24 h ([1]; pH 7, aqueous buffer, read-out: Solubility pH 7) of the same compound?
The solubility at 24 h was 9.41 µg/mL.

What about the solubility at 24 h ([1]; pH 7.4, aqueous buffer, read-out: Solubility pH 7.4) of the same compound?
The solubility at 24 h was 2.82 µg/mL.

What about the solubility at 24 h ([1]; pH 8, aqueous buffer, read-out: Solubility pH 8) of the same compound?
The solubility at 24 h was 0.91 µg/mL.

And the solubility at 24 h ([1]; pH 9, aqueous buffer, read-out: Solubility pH 9)?
The solubility at 24 h was 0.35 µg/mL.

And the “Solubility Water” value [1]?
Its value is 10935.14 µg/mL.

Which “Crystal form results, High temperature” value [3] does the source give for `CN(C)C(=O)NC1CCC(CCN2CCN(c3cccc(Cl)c3Cl)CC2)CC1` (centres unmarked) [cariprazine mono-1-hydroxy-2-naphthoate dihydrate] here?
The value was “change into the crystal form C of cariprazine mono-1-hydroxy-2-naphthoate”.

And the “Solubility pH 3” value [1, 5]?
The value was 166.74 μg/mL.

And the “Solubility pH 4” value [1, 5]?
Its value is 72.47 μg/mL.

What about the “Solubility pH 5” value [1, 5] of the same compound?
The value was 72.69 μg/mL.

And the “Solubility pH 6” value [1, 5]?
Its value is 41.95 μg/mL.

And the “Solubility pH 7” value [1, 5]?
Its value is 5.02 μg/mL.

What about the “Solubility pH 7.4” value [1, 5] of the same compound?
Its value is 1.51 μg/mL.

And the “Solubility pH 8” value [1, 5]?
Its value is 0.62 μg/mL.

What about the “Solubility pH 9” value [1, 5] of the same compound?
Its value is 0.45 μg/mL.

What about the “Solubility Water” value [1, 5] of the same compound?
Its value is 60.01 µg/mL.

With `CN(C)C(=O)NC1CCC(CCN2CCN(c3cccc(Cl)c3Cl)CC2)CC1` (centres unmarked) [cariprazine bis-1-hydroxy-2-naphthoate hydrate] as the compound, how does the “Solubility pH 3” value [1, 6] read?
Its value is 36.75 μg/mL.

What about the “Solubility pH 4” value [1, 6] of the same compound?
The value was 65.87 μg/mL.

What about the “Solubility pH 5” value [1, 6] of the same compound?
Its value is 20.69 μg/mL.

What about the “Solubility pH 6” value [1, 6] of the same compound?
Its value is 15.24 μg/mL.

And the “Solubility pH 7” value [1, 6]?
Its value is 6.13 μg/mL.

And the “Solubility pH 7.4” value [1, 6]?
The value was 3.00 μg/mL.

What about the “Solubility pH 8” value [1, 6] of the same compound?
The value was 1.14 μg/mL.

And the “Solubility pH 9” value [1, 6]?
The value was 0.94 μg/mL.

And the “Solubility Water” value [1, 6]?
Its value is 55.20 µg/mL.
